Assay results published in article PMC6470842 (Pharmaceutics, 2019).

Columns and labels:
[1] = humans, intravenous; cited from earlier work
MATE1 = settings: read-out: apparent Ki MATE1; cited from earlier work
[2] = rats, assumed from human value; cited from earlier work
[3] = target: T1, N-acetyltransferase II (NAT-II) (Rattus norvegicus, UniProt P50298); assay: In vitro metabolic conversion of PA to NAPA in rat liver S9 fractions
T1 sequence (P50298 1-290): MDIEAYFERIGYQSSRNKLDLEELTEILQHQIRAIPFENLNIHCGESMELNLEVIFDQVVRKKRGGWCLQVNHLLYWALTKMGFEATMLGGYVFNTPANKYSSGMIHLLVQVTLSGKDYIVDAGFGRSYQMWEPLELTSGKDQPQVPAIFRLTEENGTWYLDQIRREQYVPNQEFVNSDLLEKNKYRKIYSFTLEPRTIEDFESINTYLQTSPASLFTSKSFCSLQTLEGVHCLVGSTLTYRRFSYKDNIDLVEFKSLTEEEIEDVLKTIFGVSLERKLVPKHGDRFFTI
Procedure: The mixture was preincubated at 37 °C for 5 min in a Multi-Therm Shaker (Benchmark Scientific, South Plainfield, NJ, USA) set at 200 oscillations per min. After preincubation, the reaction was started by adding 10 µL of 20 mM acetyl-CoA and vortex mixing. Upon collecting samples at 0 min and 30 min after initiation by pipetting out 50 µL of aliquot into an Eppendorf tube, the metabolic reaction was terminated by adding 100 µL of ice-cold methanol containing IS (200 ng/mL). […] After the preincubation of the mixture (37 °C for 5 min in Benchmark Multi-Therm Shaking Vortexer set at 200 oscillations per min), the reaction was initiated by adding 10 µL of 20 mM acetyl-CoA and vortex mixing. Samples (50 µL) were collected at predetermined times (0, 15, or 30 min after initiation) and ice-cold methanol (100 µL) containing IS (200 ng/mL) was added to terminate the reaction. All samples were vortex mixed and centrifuged at 12,000 g for 10 min at 4 °C. Finally, 70 µL aliquots of supernatants were transferred into vials and 2 µL was injected into the UHPLC system to determine the concentration of the formed metabolite, NAPA.

rOCT2 [4] = settings: [14C]-tetraethylammonium accumulation via rOCT2; cited from earlier work
[5] = humans
[6] = rats, cited from earlier work
[7] = cited from earlier work
[8] = Systemic pharmacokinetics after intravenous administration in rats (noncompartmental analysis); settings: rats
Procedure: After recovery from anesthesia, rats in both groups received intravenous bolus injections. […] To compensate for the loss of body fluid due to serial blood sampling, an identical volume of saline was intravenously replenished after each blood sampling.
Volumes of the urinary samples were measured, followed by 100-fold dilution of the samples (for urinary samples obtained from 0 to 8 h) or 50-fold dilution, with distilled deionized water. All samples were then stored at −80 °C until analysis.
In this study, conventional noncompartmental analyses were conducted using Winnonlin Professional 5.0.1 software (Pharsight Corporation, Mountain View, CA, USA) to calculate pharmacokinetic parameters [38], including area under the plasma concentration-time curve (AUC) from time zero to infinity (AUCinf), systemic clearance (CL), terminal phase half-life, mean residence time (MRT), and volume of distribution at steady state (VSS). In addition, parameters including the maximal concentration (Cmax) and the time to the Cmax of NAPA (Tmax) were also estimated.
Non-renal clearance (CLNR) was then determined by subtracting CLR from CL.

in vivo = settings: rat, kidney, intravenous, 8 mg/kg
[9] = rat plasma; cited from earlier work
rMATE1 = settings: cited from earlier work
rOCT2 [10] = settings: read-out: Km rOCT2; cited from earlier work

In the case of CN/C(=N/CCSCc1nc[nH]c1C)NC#N [cimetidine, Cimetidine], the CLsec (CLR minus fup·GFR) is reported as 4.76 mL/min/kg, the CLH (calculated) is reported as 2.79 mL/min and the CLD1 (fitted, value (CV%)) is reported as 17.6 (22.7) mL/min. The CLD2 (fitted, value (CV%)) was 2.96 (138) mL/min, the V1 (fitted, value (CV%)) was 125 (63.4) mL and the V2 (fitted, value (CV%)) was 200 (80.0) mL. For the same molecule, the VC (fitted, value (CV%)) was 83.7 (6.78) mL, the “CLu,int,r” value (retrograde calculation) was 0.140 mL/min and the PSin (retrograde calculation) was 839 mL/min. For the same molecule, the PSout (scaled from PAMPA permeability) was 74.1 mL/min, the renal clearance [1] was “approximately 9.25 mL/min/kg” and the Ki (MATE1) was 1.1 µM. For the same molecule, the “B/P ratio (R)” value [2] was 1, the IC50 [3] was 2060 ± 242 µM and the Ki (rOCT2 [4]) was 9.4 µM. The “renal clearance relative to theoretical GFR” value [5] was 6.4 fold, the “fraction of the dose excreted unchanged (fe)” value ([6]; 100 mg/kg) was 0.45 and the kidney-to-plasma concentration ratio ([6]; 90 min after bolus injection of 8 mg/kg, regarded as Kp,ss) was 9.25. For the same molecule, the PAMPA permeability [7] was 3.02 ×10⁻⁶ cm/s, the AUC(0-inf) ([8]; male, SD, rat, plasma, iv, 100 mg/kg, AUCinf, iv 100 mg/kg cimetidine) was 87000 ng·h/mL and the clearance ([8]; male, SD, rat, plasma, iv, 100 mg/kg, CL, iv 100 mg/kg cimetidine) was 20.3 ± 5.68 mL/min/kg. For the same molecule, the MRT ([8]; male, SD, rat, plasma, iv, 100 mg/kg, MRT, iv 100 mg/kg cimetidine) was 1.35 h, the Vd ([8]; male, SD, rat, plasma, iv, 100 mg/kg, VSS, iv 100 mg/kg cimetidine) was 1.6 ± 0.318 L/kg and the half-life ([8]; male, SD, rat, plasma, iv, 100 mg/kg, t1/2β, iv 100 mg/kg cimetidine) was 2.27 ± 1.29 h. For the same molecule, the “effective (free) concentration in the plasma” value ([8]; cimetidine 100 mg/kg) was “below 0.750 mM”, the Kp at 90 min (in vivo) was 10.3 and the fup [9] was 0.836. The Ki (rMATE1; assumed equal to Km of cimetidine transport by rMATE1) was 3.01 µM, the Km (rMATE1; cimetidine transport mediated by rMATE1) was 3.01 µM and the Km (rOCT2 [10]) was 71.5 µM.
